Laboratory results taken from PMC4537502 (Psychopharmacology, 2015).

Experiments:
[1] = molecular target: D2R; settings: read-out: Kd in rat brain tissue; ref Köhler et al. [1985]; cited from earlier work
[2] = molecular target: dopamine D2 receptor (D2R) (Rattus norvegicus, UniProt P61169); assay: in vivo; settings: rat, baseline, mean ± S.D.
Description: Because of limited availability of the test drug, the 60 mg/kg dose group was scanned only with ^11C-raclopride.
After drug administration and about 20 min before each microPET scan, animals were anesthetized with isoflurane (Pharmachemie BV, Haarlem, Netherlands). […] Both tracers were injected as a slow bolus (1 ml of saline-diluted tracer solution infused during a period of 1 min), using a Harvard-style injection pump.
Two rats were scanned in each scan session. They were positioned on heating mats in a microPET Focus 220 system, in transaxial position above each other with their brains in the field of view. Body temperature of the animals was kept close to normal with electronic temperature controllers. Heart rate and oxygen level of the blood during the scan were monitored using pulse oximeters (PulseSense, Nonin). […] A list mode protocol was used with a 76-min acquisition time.
Image reconstruction was performed using microPET Manager 2.3.3.6 (Siemens). The PET data were split according to position along the y-axis, so that a separate data set was acquired for each animal. The list mode data of the emission scans were reframed in a dynamic sequence of 6 × 10, 4 × 30, 2 × 60, 1 × 120, 1 × 180, 4 × 300, and 3 × 600 s (with an additional 960-s frame for the rat that was injected first). The data were reconstructed per time frame employing an iterative reconstruction algorithm (OSEM2D with Fourier rebinning, 4 iterations, and 16 subsets). […] Data sets were corrected for decay, random coincidences, scatter, and attenuation.
In ^11C-raclopride scans of the brain, three-dimensional regions of interest (ROIs) were manually drawn over the left and right striatum and cerebellum, using the program ASIPro 6.3.3.0 (Siemens). […] Time-activity curves (TACs) were generated for these regions (Fig. 1). The results are expressed as dimensionless standardized uptake values (PET-SUV), defined as [(tissue activity concentration (MBq/g) × body weight (g) / injected dose (MBq)]. Brain tissue was assumed to have a specific gravity of 1 g/ml.
Plateau values for the striatum-to-cerebellum ratio were derived from this curve fit.

dopamine D2 receptor (D2R), sequence (P61169 whole entry): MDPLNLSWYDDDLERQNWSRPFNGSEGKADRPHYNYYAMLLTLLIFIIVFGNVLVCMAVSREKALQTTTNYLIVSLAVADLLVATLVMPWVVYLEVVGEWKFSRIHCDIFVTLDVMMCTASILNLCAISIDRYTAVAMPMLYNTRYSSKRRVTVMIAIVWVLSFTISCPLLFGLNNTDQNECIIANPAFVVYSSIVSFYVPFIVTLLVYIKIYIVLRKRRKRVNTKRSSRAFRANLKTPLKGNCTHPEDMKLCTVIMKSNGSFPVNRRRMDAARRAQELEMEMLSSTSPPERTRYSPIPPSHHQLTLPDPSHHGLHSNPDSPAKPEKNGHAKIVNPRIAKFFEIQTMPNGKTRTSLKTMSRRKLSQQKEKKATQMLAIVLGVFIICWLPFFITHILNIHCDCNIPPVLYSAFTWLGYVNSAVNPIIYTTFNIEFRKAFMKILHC

SMILES | Kd [1] [nM] | Target binding of the radioligand (striatum-to-cerebellum ratio at plateau minus one) [2]
CCN1CCC[C@H]1CNC(=O)c1c(O)c(Cl)cc(Cl)c1OC (racemic) [^11C-raclopride] | 1.2 | 
CCN1CCC[C@H]1CNC(=O)c1c(O)c(Cl)cc(Cl)c1O[11CH3] (racemic) [^11C-raclopride] |  | 2.85 ± 0.48
